Test results: patent US20140296265A1, “Method of Treating Lymphoma Using Pyridopyrimidinone Inhibitors of PI3K/mTOR” (Sanofi, priority 2011, published 2014)

Columns and labels:
[1] = Phase 1 dose-escalation study: safety and tolerability (MTD, adverse events); assay type: in vivo
Method: (§1) A Phase I, non-randomized, open-label, dose-escalation study was conducted for Compound A using two dosing schedules to evaluate the safety, PK, and pharmacodynamics of Compound A in subjects with solid tumors or lymphoma.
Patients were treated with a conventional ‘3+3’ dose-escalation design with cohorts of three to six subjects for up to nine different dose levels on each dosing schedule.
(§2) Patients received 5, 10 or 50 mg of Compound A either twice daily (bid) or daily (qd) for 28-day cycles. Pharmacokinetics and pharmacodynamic analyses were performed, and tumor response was assessed every 8 weeks.

[2] = Phase 1 dose-escalation study: plasma pharmacokinetics; assay type: in vivo, human
Method: as §1, §2

[3] = test system: PI3K and ERK pathway signaling; test: Phase 1 dose-escalation study: pharmacodynamics in paired tumor biopsies; assay type: in vivo, human
Method: as §1, §2

solid tumors or lymphoma = test: Phase 1 dose-escalation study: tumor response; assay type: in vivo, human
Method: as §1, §2

[4] = Phase 1 dose-expansion lymphoma cohort: safety and tolerability; assay type: in vivo, human
From the text: The following phase 1 study was designed to evaluate the safety and pharmacokinetics of Compound A administered as a continuous daily dosing regimen in an expansion cohort of subjects with relapsed or refractory lymphoma.
(§3) This was a Phase 1, open-label, non-randomized trial of Compound A given orally as a single agent in subjects with lymphoma. The maximum tolerated dose expansion cohort planned enrollment was at least 15 subjects.
The primary objective was to determine the safety and tolerability of Compound A administered orally, twice daily, as a continuous daily dosing regimen to subjects with relapsed or refractory lymphoma.
(§4) The key eligibility include the following: • Histologically confirmed diagnosis of relapsed or refractory lymphoma • Measureable disease • Adequate bone marrow function defined as: • ANC≧1000/mm3 (chronic lymphocytic leukemia with ANC≧500/mm3) • Platelets≧30,000/mm3 • Hemoglobin≧8 g/dL • Availability of archival or fresh tumor tissue • No prior therapy with a selective PI3K inhibitor • Written informed consent.

[5] = human, in vivo, 50 mg, 27 day
From the text: The secondary objectives were to determine (a) the plasma pharmacokinetics of Compound A continuous daily dosing; and (b) the pharmacodynamic effects of Compound A on tumor tissue.

[6] = test system: relapsed or refractory lymphoma; test: Phase 1 dose-expansion lymphoma cohort: best response; assay type: in vivo, human
From the text: as §3
The exploratory objectives were to determine (a) the pharmacodynamic effects of Compound A in subjects with lymphoma; (b) the preliminary efficacy data (response rate) for Compound A; and (c) the long-term safety and tolerability of Compound A after repeated twice daily administration.
as §4

PI3K and MAPK pathways = test: Pharmacodynamic analyses in paired tumor tissue: phospho-markers; assay type: in vivo, human; conditions: for % Decrease p4EBP1T70 / % Decrease pAKTS473 / % Decrease pAKTT308 / % Decrease pERKT202/Y204: Mantle Cell Lymphoma, 50 mg BID, PTEN-def
Method: (§5) The secondary objectives were to determine (a) the plasma pharmacokinetics of Compound A continuous daily dosing; and (b) the pharmacodynamic effects of Compound A on tumor tissue. […] This finding is also reflected in FIG. 3, which depicts PTEN IHC and Ki67 IF staining of lymphoma tumor cells treated with Compound A. PTEN expression was evaluated by immunohistochemistry in formalin fixed, paraffin-embedded tissue sections FFPE (5 micron) with anti-PTEN antibody (NCL-PTEN, clone 28H6, diluted 1/300, Novocastra Laboratories Ltd) utilizing standardized procedures. Cryopreserved tumor biopsy samples were serially sectioned at 5 microns and converted in FFPE sections.

[7] = test system: mantle cell lymphoma tumor; test: Pharmacodynamic analyses in paired tumor tissue: Ki67 and TUNEL; assay type: in vivo, human
Method: as §5

[8] = paired biopsies of diverse solid tumors, five patients, 50 mg bid
[9] = lymphoma cohort, sixteen subjects
[10] = Diffuse Large B-cell Lymphoma, n 2, twice daily continuous dosing
[11] = Follicular Lymphoma, n 4, twice daily continuous dosing
[12] = Mantle Cell Lymphoma, n 5, twice daily continuous dosing
[13] = Mantle Cell Lymphoma, 50 mg BID, D 56 post dose, PTEN-def

CCn1c(=O)c(-c2ccn[nH]2)cc2c(C)nc(N)nc21 [Compound A, 2-amino-8-ethyl-4-methyl-6-(1H-pyrazol-5-yl)pyrido[2,3-d]pyrimidin-7(8H)-one]
maximum tolerated dose (MTD) ([1]; bid schedule): 50 mg
most common related adverse events ([1]; in vivo): nausea, diarrhea, anorexia, elevated liver enzymes, skin and subcutaneous disorders, and vomiting
tolerability ([1]; in vivo): generally well-tolerated
maximum tolerated dose (MTD) ([1]; qd schedule): 90 mg
exposure versus dose ([2]; bid and qd schedules): increase with increasing dose
half-life ([2]; human, plasma, oral, at steady-state, read-out: Mean t1/2,z): 3 to 9 h
Tmax ([2]; human, plasma, oral, post-dose, read-out: Median tmax): 1 to 3 h
post-dose reduction in p4EBP1 [3, 8]: 62-80%
post-dose reduction in pAKT-T308 [3, 8]: 57-71%
post-dose reduction in pERK [3, 8]: 53-80%
pharmacodynamic modulation of PI3K and ERK pathway signaling ([3]; tumors and surrogate tissues, repeat-dose administration): Robust pharmacodynamic modulation
patients on study for ≧16 weeks (solid tumors or lymphoma; in vivo): Eleven
patients on treatment for ≧24 weeks (solid tumors or lymphoma; in vivo): seven
tumor response (solid tumors or lymphoma; one patient with mantle cell lymphoma, treated for 12 cycles): one partial response in MCL
activity in solid tumor patients (solid tumors or lymphoma; solid tumor patients): prolonged disease stabilization
ALT increased, All Adverse Events, All Grades ([4]; human, in vivo): 3 (19) n (%)
ALT increased, All Adverse Events, Grade ≧ 3 ([4]; human, in vivo): 2 (13) n (%)
ALT increased, Related Adverse Events, All Grades ([4]; human, in vivo): 3 (19) n (%)
ALT increased, Related Adverse Events, Grade ≧ 3 ([4]; human, in vivo): 2 (13) n (%)
AST increased, All Adverse Events, All Grades ([4]; human, in vivo): 4 (25) n (%)
AST increased, All Adverse Events, Grade ≧ 3 ([4]; human, in vivo): 0 n (%)
AST increased, Related Adverse Events, All Grades ([4]; human, in vivo): 3 (19) n (%)
AST increased, Related Adverse Events, Grade ≧ 3 ([4]; human, in vivo): 0 n (%)
Anemia, All Adverse Events, All Grades ([4]; human, in vivo): 3 (19) n (%)
Anemia, All Adverse Events, Grade ≧ 3 ([4]; human, in vivo): 2 (13) n (%)
Anemia, Related Adverse Events, All Grades ([4]; human, in vivo): 1 (6) n (%)
Anemia, Related Adverse Events, Grade ≧ 3 ([4]; human, in vivo): 0 n (%)
Asthenia, All Adverse Events, All Grades ([4]; human, in vivo): 3 (19) n (%)
Asthenia, All Adverse Events, Grade ≧ 3 ([4]; human, in vivo): 2 (13) n (%)
Asthenia, Related Adverse Events, All Grades ([4]; human, in vivo): 0 n (%)
Asthenia, Related Adverse Events, Grade ≧ 3 ([4]; human, in vivo): 0 n (%)
Creatinine increased, All Adverse Events, All Grades ([4]; human, in vivo): 3 (19) n (%)
Creatinine increased, All Adverse Events, Grade ≧ 3 ([4]; human, in vivo): 0 n (%)
Creatinine increased, Related Adverse Events, All Grades ([4]; human, in vivo): 0 n (%)
Creatinine increased, Related Adverse Events, Grade ≧ 3 ([4]; human, in vivo): 0 n (%)
Diarrhea, All Adverse Events, All Grades ([4]; human, in vivo): 6 (38) n (%)
Diarrhea, All Adverse Events, Grade ≧ 3 ([4]; human, in vivo): 0 n (%)
Diarrhea, Related Adverse Events, All Grades ([4]; human, in vivo): 3 (19) n (%)
Diarrhea, Related Adverse Events, Grade ≧ 3 ([4]; human, in vivo): 0 n (%)
Discontinuations of treatment: Adverse event ([4]; human, in vivo): 2 (13) n (%)
Dose modification due to treatment-related toxicities: AST/ALT increase ([4]; human, in vivo): 2 (40) n (%)
Dose modification due to treatment-related toxicities: Amylase increase ([4]; human, in vivo): 1 (20) n (%)
Dose modification due to treatment-related toxicities: Nausea ([4]; human, in vivo): 2 (40) n (%)
Fatigue, All Adverse Events, All Grades ([4]; human, in vivo): 3 (19) n (%)
Fatigue, All Adverse Events, Grade ≧ 3 ([4]; human, in vivo): 1 (6) n (%)
Fatigue, Related Adverse Events, All Grades ([4]; human, in vivo): 1 (6) n (%)
Fatigue, Related Adverse Events, Grade ≧ 3 ([4]; human, in vivo): 0 n (%)
Hyperglycemia, All Adverse Events, All Grades ([4]; human, in vivo): 3 (19) n (%)
Hyperglycemia, All Adverse Events, Grade ≧ 3 ([4]; human, in vivo): 0 n (%)
Hyperglycemia, Related Adverse Events, All Grades ([4]; human, in vivo): 1 (6) n (%)
Hyperglycemia, Related Adverse Events, Grade ≧ 3 ([4]; human, in vivo): 0 n (%)
Nausea, All Adverse Events, All Grades ([4]; human, in vivo): 5 (31) n (%)
Nausea, All Adverse Events, Grade ≧ 3 ([4]; human, in vivo): 0 n (%)
Nausea, Related Adverse Events, All Grades ([4]; human, in vivo): 5 (31) n (%)
Nausea, Related Adverse Events, Grade ≧ 3 ([4]; human, in vivo): 0 n (%)
Patients requiring dose modification due to toxicity ([4]; human, in vivo): 12 (75) n (%)
Patients requiring dose modification due to treatment-related toxicities ([4]; human, in vivo): 5 (31) n (%)
Pyrexia, All Adverse Events, All Grades ([4]; human, in vivo): 4 (25) n (%)
Pyrexia, All Adverse Events, Grade ≧ 3 ([4]; human, in vivo): 0 n (%)
Pyrexia, Related Adverse Events, All Grades ([4]; human, in vivo): 0 n (%)
Pyrexia, Related Adverse Events, Grade ≧ 3 ([4]; human, in vivo): 0 n (%)
Discontinuations of treatment ([4]; in vivo): 14 (88) n (%)
tolerability ([4]; in vivo): well tolerated
Discontinuations of treatment: Death (unrelated to study drug) [4, 9]: 1 (6) n (%)
Discontinuations of treatment: Progressive disease [4, 9]: 8 (50) n (%)
accumulation (AUCtau) on day 27 [5]: approximately 3 fold
Best Response: subjects with Partial Response [6, 10]: 1
Best Response: subjects with Progressive Disease [6, 10]: 1
Best Response: subjects with Progressive Disease [6, 11]: 1
Best Response: subjects with Stable Disease [6, 11]: 3
Best Response: subjects with Stable Disease ([6]; Hodgkin's Lymphoma, n 1, twice daily continuous dosing): 1
Best Response: subjects with Partial Response [6, 12]: 1^b
Best Response: subjects with Progressive Disease [6, 12]: 1
Best Response: subjects with Stable Disease [6, 12]: 3 c
Best Response: subjects with Partial Response ([6]; Transformed Lymphoma, n 1, twice daily continuous dosing): 1 days
% Decrease p4EBP1T70 (PI3K and MAPK pathways; D 27 post dose): 60%
% Decrease pAKTS473 (PI3K and MAPK pathways; D 27 post dose): 70%
% Decrease pAKTT308 (PI3K and MAPK pathways; D 27 post dose): 65%
% Decrease pERKT202/Y204 (PI3K and MAPK pathways; D 27 post dose): 15%
% Decrease p4EBP1T70 (PI3K and MAPK pathways; D 56 post dose): 60%
% Decrease pAKTS473 (PI3K and MAPK pathways; D 56 post dose): 73%
% Decrease pAKTT308 (PI3K and MAPK pathways; D 56 post dose): 88%
% Decrease pERKT202/Y204 (PI3K and MAPK pathways; D 56 post dose): 74%
inhibition of the PI3K and MAPK pathways (PI3K and MAPK pathways; mantle cell lymphoma tumor): robust inhibition of the PI3K and MAPK pathways
% Decrease Ki67 ([7]; Mantle Cell Lymphoma, 50 mg BID, D 27 post dose, PTEN-def): 98%
% Decrease Ki67 [7, 13]: 99%
TUNEL (fold increase) [7, 13]: 1.5 fold
inhibition of Ki67 proliferation ([7]; mantle cell lymphoma tumor): near complete inhibition of Ki67 proliferation
